Measured values from ChEMBL document CHEMBL3576791, “Rational Design of a Novel AMPA Receptor Modulator through a Hybridization Approach” (ACS Med Chem Lett, 2015).
Calls of active or inactive are those of the source. The calls are words filed in the database; no cut-off is given here.

Legend:
Format in all cases: cell-based
[1] = target: Glutamate receptor 2 (Homo sapiens) (UniProt P42262); test: Modulation of GluA2 flip receptor (unknown origin) transfected in HEK293 cells assessed as deactivation of channel at 30 uM by electrophysiology
Chain of Glutamate receptor 2 (Homo sapiens) (P42262 whole entry): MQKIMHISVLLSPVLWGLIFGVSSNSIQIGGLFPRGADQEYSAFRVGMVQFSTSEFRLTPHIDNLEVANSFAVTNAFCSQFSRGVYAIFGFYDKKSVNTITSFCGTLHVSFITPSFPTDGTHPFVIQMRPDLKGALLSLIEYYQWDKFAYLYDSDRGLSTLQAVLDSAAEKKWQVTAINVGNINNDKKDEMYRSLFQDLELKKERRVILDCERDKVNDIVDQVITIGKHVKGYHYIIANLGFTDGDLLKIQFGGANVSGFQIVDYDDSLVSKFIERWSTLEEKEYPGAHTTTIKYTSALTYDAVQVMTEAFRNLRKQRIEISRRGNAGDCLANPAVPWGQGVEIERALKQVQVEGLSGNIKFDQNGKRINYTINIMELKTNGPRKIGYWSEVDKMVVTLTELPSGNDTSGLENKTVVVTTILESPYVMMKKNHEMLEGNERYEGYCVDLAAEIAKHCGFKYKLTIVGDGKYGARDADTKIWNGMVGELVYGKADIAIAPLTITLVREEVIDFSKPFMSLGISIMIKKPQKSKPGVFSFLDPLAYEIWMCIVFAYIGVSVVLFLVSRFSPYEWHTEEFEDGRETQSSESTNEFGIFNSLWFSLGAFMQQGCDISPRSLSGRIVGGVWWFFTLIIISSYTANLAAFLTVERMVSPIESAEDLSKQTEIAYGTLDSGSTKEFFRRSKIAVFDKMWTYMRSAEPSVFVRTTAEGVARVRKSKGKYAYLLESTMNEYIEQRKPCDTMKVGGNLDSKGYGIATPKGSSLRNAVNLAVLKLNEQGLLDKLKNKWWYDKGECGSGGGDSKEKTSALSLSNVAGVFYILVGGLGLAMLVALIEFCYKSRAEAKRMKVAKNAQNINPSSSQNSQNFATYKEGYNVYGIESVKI

[2] = target: Glutamate receptor 2 (Homo sapiens) (UniProt P42262); test: Modulation of GluA2 flop receptor (unknown origin) transfected in HEK293 cells assessed as deactivation of channel at 30 uM by electrophysiology
[3] = target: Glutamate receptor 2 (Homo sapiens) (UniProt P42262); test: Modulation of GluA2 flip receptor (unknown origin) transfected in HEK293 cells assessed as desensitization measured as increase in steady-state current at 30 uM by electrophysiology
[4] = target: Glutamate receptor 2 (Homo sapiens) (UniProt P42262); test: Modulation of GluA2 flop receptor (unknown origin) transfected in HEK293 cells assessed as desensitization measured as increase in steady-state current at 30 uM by electrophysiology
[5] = target: Glutamate receptor 2 (Homo sapiens) (UniProt P42262); test: Modulation of GluA2 flip receptor (unknown origin) transfected in HEK293 cells assessed as deactivation of channel at 100 uM by electrophysiology
[6] = target: Glutamate receptor 2 (Homo sapiens) (UniProt P42262); test: Modulation of GluA2 flop receptor (unknown origin) transfected in HEK293 cells assessed as deactivation of channel at 100 uM by electrophysiology
[7] = target: Glutamate receptor 2 (Homo sapiens) (UniProt P42262); test: Modulation of GluA2 flip receptor (unknown origin) transfected in HEK293 cells assessed as desensitization measured as increase in steady-state current at 100 uM by electrophysiology
[8] = target: Glutamate receptor 2 (Homo sapiens) (UniProt P42262); test: Modulation of GluA2 flop receptor (unknown origin) transfected in HEK293 cells assessed as desensitization measured as increase in steady-state current at 100 uM by electrophysiology

Structure (SMILES)	Activity [1]	Activity [2]	Activity [3]	Activity [4]	Activity [5]	Activity [6]	Activity [7]	Activity [8]
O=S1(=O)c2ccc(Cn3cc(CO)c(C(F)(F)F)n3)cc2OC[C@@H]2CCCN21	inactive	inactive	Active	Active	–	–	–	–
O=C1c2ccc(-n3cc(CO)c(C(F)(F)F)n3)cc2OC[C@@H]2CCCN12	inactive	inactive	inactive	inactive	–	–	–	–
NC(=O)c1c(NC(=O)Cn2cc(CO)c(C(F)(F)F)n2)sc2ccccc12	–	–	–	–	Active	Active	Active	Active
O=C1c2ccc(Cn3cc(CO)c(C(F)(F)F)n3)cc2OC[C@@H]2CCCN12	Active	inactive	Active	Active	–	–	–	–
